{
  "source": "patent US6458831B1",
  "about": "“Use of two plant phenols in the treatment of arteriosclerosis” (Council of Scientific and Industrial Research, priority 2000, dated 2002)",
  "key": {"[1]": {"experiment": "In vitro DPPH free radical scavenging antioxidant potency", "settings": "Tris-HCl buffer pH 7.4, 45 minutes in dark, absorbency at 517 nm, references probucol and α-tocopherol", "protocol": "In vitro evaluation of free radical scavenging antioxidant potency:\nAntioxidant activity of the compounds ((−)-Matairesinol and (−)-wikstromol) were tested for their capacity/potency to scavenger most widely used free radical 2,2-diphenyl-1-[…] radical (DPPH). The well-accepted and tested probucol and α-tocopherol were taken as reference compounds. 1 mg/ml DMSO concentration of the compounds [(−)-Matairesinol and (−)-wikstromol] were prepared and subsequently, serially diluted to lower concentrations with DMSO […] of test compounds were reconstituted to 1 ml in Tris-HCl buffer (pH 7.4) equal volume of 500 μm of DPPH radical dissolved in ethanol was reacted with this. After incubation for 45 minutes in dark, the absorbency at 517 nm was recorded. Radical with no compound was taken as control for calculation of % radical scavenging activity. All the readings were recorded in triplicate."}, "[2]": {"experiment": "Effectiveness on administration at 250 mg/kg of body weight", "type": "in vivo", "settings": "dosage of 250 mg/kg of body weight"}, "CAMP phosphodiesterase": {"system": "CAMP phosphodiesterase", "settings": "cited from earlier work"}, "[3]": {"target": "T1, human sex hormone-binding globulin (SHBG) (Homo sapiens, UniProt P04278)", "T1 sequence (P04278 30-402)": "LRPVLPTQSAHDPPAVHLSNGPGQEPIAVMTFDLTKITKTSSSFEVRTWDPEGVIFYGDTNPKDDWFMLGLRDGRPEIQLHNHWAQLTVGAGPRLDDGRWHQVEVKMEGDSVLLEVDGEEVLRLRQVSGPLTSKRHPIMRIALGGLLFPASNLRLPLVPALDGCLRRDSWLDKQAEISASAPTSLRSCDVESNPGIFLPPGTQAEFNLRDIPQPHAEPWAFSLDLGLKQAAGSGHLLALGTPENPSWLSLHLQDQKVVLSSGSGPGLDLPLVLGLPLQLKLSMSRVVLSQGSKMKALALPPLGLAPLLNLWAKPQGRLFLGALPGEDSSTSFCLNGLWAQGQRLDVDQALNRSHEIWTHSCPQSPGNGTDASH", "settings": "cited from earlier work"}, "[4]": {"system": "p-388 lymphocyte leukemia", "settings": "cited from earlier work"}, "HIV": {"system": "HIV", "settings": "cited from earlier work"}},
  "data": [
    {"smiles": "COc1cc(C[C@H]2COC(=O)[C@@H]2Cc2ccc(O)c(OC)c2)ccc1O", "note": "[(−)-Matairesinol, 4,4^1-dihydroxy-3, 3^1-dimethoxylignan-9, 9^1-olide]", "values": [
      {"measurement": "antioxidant/radical scavenging potency compared with reference standards", "setting": "[1]", "result": "more potent antioxidant/radical scavenging potency than reference standards"},
      {"measurement": "effectiveness when administered", "setting": "[2]", "result": "highly effective"},
      {"measurement": "CAMP phosphodiesterase inhibition activity", "setting": "CAMP phosphodiesterase", "result": "exhibits CAMP phosphodiesterase inhibition activity"},
      {"measurement": "binding of H-labeled 5α-dihydrotestosterone (DHT) to human SHBG", "setting": "[3]", "result": "reduce the binding"}
    ]},
    {"smiles": "COc1cc(C[C@@H]2COC(=O)[C@@]2(O)Cc2ccc(O)c(OC)c2)ccc1O", "note": "[(−)-wikstromol, 4,4^1,8-trihydroxy-3, 3^1-dimethoxyliganan-9, 9^1-olide]", "values": [
      {"measurement": "antioxidant/radical scavenging potency compared with reference standards", "setting": "[1]", "result": "more potent antioxidant/radical scavenging potency than reference standards"},
      {"measurement": "effectiveness when administered", "setting": "[2]", "result": "highly effective"},
      {"measurement": "activity against p-388 lymphocyte leukemia", "setting": "[4]", "result": "active against p-388 lymphocyte leukemia"},
      {"measurement": "anti-HIV activity", "setting": "HIV", "result": "anti-HIV activity"}
    ]}
  ]
}
